Patent EP4644396A1 (Visionpharma (Nantong) Co., Ltd, priority 2022, dated 2024)
pIC50: −log10 of the molar value. Where two headings read alike, the source gives them in different places.

Experiments:
[1] = biological target: T1, human TLR7 (Homo sapiens, UniProt Q9NYK1); assay: HEK-Blue hTLR7 SEAP reporter gene inhibition assay; type: cell-based; details: for pIC50: read-out: HEK-Blue hTLR7 IC50; for IC50: HEK-Blue hTLR7 IC50 (µM)
T1 sequence (Q9NYK1 27-1049): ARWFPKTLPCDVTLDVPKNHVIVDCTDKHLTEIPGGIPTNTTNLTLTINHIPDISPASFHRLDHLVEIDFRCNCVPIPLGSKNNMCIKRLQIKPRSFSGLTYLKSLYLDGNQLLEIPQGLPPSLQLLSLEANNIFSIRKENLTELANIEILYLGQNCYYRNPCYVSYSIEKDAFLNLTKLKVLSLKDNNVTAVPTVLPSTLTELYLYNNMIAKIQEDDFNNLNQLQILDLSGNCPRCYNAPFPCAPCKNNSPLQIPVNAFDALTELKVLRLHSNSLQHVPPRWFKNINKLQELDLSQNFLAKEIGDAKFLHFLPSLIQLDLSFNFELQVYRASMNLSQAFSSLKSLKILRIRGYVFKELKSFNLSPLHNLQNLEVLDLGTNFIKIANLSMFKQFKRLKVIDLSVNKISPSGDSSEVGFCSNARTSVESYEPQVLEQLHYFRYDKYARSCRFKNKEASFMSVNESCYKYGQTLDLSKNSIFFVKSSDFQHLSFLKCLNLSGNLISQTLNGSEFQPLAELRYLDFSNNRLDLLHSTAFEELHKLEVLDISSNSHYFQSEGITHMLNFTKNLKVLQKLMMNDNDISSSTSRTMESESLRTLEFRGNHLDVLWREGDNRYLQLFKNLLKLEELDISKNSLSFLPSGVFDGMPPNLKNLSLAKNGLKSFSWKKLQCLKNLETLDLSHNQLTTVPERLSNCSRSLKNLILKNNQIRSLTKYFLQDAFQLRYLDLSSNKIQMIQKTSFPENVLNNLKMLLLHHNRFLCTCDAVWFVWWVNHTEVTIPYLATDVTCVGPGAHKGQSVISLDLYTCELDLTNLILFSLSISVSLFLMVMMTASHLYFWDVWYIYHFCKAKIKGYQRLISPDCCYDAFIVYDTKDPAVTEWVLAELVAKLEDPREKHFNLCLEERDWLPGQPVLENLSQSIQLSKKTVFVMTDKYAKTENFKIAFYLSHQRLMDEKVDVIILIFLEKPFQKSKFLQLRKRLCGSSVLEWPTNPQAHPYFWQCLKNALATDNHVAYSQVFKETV
Summary of the method: (§1)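 HEK-Blue cells stably expressing hTLR7 (80,000/well) or hTLR8 (60,000/well), SEAP under IFN-β minimal promoter with five NF-κB/AP-1 sites. Compounds (0.001–36 µM final) preincubated 15 min, then 10 µM ligand (Gardiquimod for TLR7) for 20 h. SEAP read with Quanti-Blue; IC50 calculated.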

[2] = biological target: T2, human TLR8 (Homo sapiens, UniProt Q9NR97); assay: HEK-Blue hTLR8 SEAP reporter gene inhibition assay; type: cell-based; details: for pIC50: read-out: HEK-Blue hTLR8 IC50; for IC50: HEK-Blue hTLR8 IC50 (µM)
T2 construct: expressed in transfected cells
T2 sequence (Q9NR97 27-1041): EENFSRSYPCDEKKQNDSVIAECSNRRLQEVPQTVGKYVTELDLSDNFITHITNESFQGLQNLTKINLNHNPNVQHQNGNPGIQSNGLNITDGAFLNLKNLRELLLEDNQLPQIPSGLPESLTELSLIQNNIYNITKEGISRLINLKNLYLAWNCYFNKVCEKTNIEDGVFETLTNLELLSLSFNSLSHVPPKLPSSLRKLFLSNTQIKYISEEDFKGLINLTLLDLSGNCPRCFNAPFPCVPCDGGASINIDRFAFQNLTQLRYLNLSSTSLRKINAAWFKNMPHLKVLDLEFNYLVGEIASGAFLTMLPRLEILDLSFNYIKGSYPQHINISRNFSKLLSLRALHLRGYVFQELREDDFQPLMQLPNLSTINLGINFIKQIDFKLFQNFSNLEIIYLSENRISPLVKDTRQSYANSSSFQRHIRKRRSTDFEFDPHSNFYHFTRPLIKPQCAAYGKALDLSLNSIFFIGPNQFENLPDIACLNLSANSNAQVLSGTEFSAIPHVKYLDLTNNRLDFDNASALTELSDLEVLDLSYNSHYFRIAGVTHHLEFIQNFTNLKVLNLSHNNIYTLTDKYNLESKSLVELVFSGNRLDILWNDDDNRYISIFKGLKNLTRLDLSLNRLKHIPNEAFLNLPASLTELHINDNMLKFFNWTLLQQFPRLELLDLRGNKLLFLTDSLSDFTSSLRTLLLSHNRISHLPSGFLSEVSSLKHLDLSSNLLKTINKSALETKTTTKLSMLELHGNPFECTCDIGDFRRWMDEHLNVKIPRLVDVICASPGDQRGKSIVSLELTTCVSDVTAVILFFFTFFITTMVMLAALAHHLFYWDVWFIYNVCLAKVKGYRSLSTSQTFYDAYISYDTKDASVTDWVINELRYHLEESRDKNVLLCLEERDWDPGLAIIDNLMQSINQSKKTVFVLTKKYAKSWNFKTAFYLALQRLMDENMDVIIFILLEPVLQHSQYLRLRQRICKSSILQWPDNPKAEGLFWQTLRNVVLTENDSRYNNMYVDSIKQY
Summary of the method: as §1

[3] = hTLR7 HEK-Blue cells, TLR7 ligand Gardiquimod 10 µM, 20 hours, SEAP by Quanti-blue, class symbols
[4] = hTLR8 HEK-Blue cells, TLR8 ligand 10 µM, 20 hours, SEAP by Quanti-blue, class symbols

| pIC50 [1, 3] | pIC50 [2, 4] | Structure (SMILES) | also measured |
| --- | --- | --- | --- |
| < 7.30 | < 7.00 | C[C@@H]1CN(c2ccc(C#N)n3ncc(F)c23)Cc2c3c(nn21)CNC(C(C)(C)O)C3 (stereo partly drawn) [Example I-74, 3-Fluoro-4-((4R)-9-(2-hydroxypropan-2-yl)-4-methyl-3,4,7,8,9,10-hexahydropyrido [3',4':3,4]pyrazolo[1,5-a]pyrazin-2(1H)-yl)pyrazolo[1,5-a]pyridine-7-carbonitrile] |  |
| < 7.30 | < 7.00 | C[C@H]1CN(c2ccc(C#N)n3ncc(F)c23)Cc2c3c(nn21)CNCC3 [Example I-76, (S)-3-Fluoro-4-(4-methyl-3,4,7,8,9,10-hexahydropyrido[3',4':3,4]pyrazolo[1,5-a]pyrazin-2(1H)-yl)pyrazolo[1,5-a]pyridine-7-carbonitrile] |  |
| < 7.30 | > 7.00 | C[C@@H]1CN(c2ccc(C#N)n3ncc(F)c23)Cc2c3c(nn21)CN[C@@H](CO)C3 [Example I-77, 3-Fluoro-4-((4R,9R)-9-(hydroxymethyl)-4-methyl-3,4,7,8,9,10-hexahydropyrido [3',4':3,4]pyrazolo[1,5-a]pyrazin-2(1H)-yl)pyrazolo[1,5-a]pyridine-7-carbonitrile] |  |
| > 7.30 | > 7.00 | C[C@@H]1CN(c2ccc(C#N)n3ncc(F)c23)Cc2c3c(nn21)CNC(Cc1ccn[nH]1)C3 (stereo partly drawn) [Example I-79, 4-((4R)-9-((1H-pyrazol-5-yl)methyl)-4-methyl-3,4,7,8,9,10-hexahydropyrido[3',4':3,4]pyrazolo[1,5-a]pyrazin-2(1H)-yl)-3-fluoropyrazolo[1,5-a]pyridine-7-carbonitrile] |  |
| > 7.30 | < 7.00 | COC[C@H]1Cc2c(nn3c2CN(c2ccc(C#N)n4ncc(F)c24)C[C@H]3C)CN1 [Example I-82, 3-Fluoro-4-((4R,9R)-9-(methoxymethyl)-4-methyl-3,4,7,8,9,10-hexahydropyrido [3',4':3,4]pyrazolo[1,5-a]pyrazin-2(1H)-yl)pyrazolo[1,5-a]pyridine-7-carbonitrile] |  |
| > 7.30 | > 7.00 | C[C@@H]1CN(c2ccc(C#N)n3ncc(F)c23)Cc2c3c(nn21)CNC(C)(C)C3 [Example I-83, (R)-3-Fluoro-4-(4,9,9-trimethyl-3,4,7,8,9,10-hexahydropyrido[3',4':3,4]pyrazolo [1,5-a]pyrazin-2(1H)-yl)pyrazolo[1,5-a]pyridine-7-carbonitrile] |  |
| < 7.30 | > 7.00 | COC[C@@H]1Cc2c(nn3c2CN(c2ccc(C#N)n4ncc(F)c24)C[C@H]3C)CN1 [Example I-85, 3-Fluoro-4-((4R,9S)-9-(methoxymethyl)-4-methyl-3,4,7,8,9,10-hexahydropyrido [3',4':3,4]pyrazolo[1,5-a]pyrazin-2(1H)-yl)pyrazolo[1,5-a]pyridine-7-carbonitrile] |  |
| > 7.30 | > 7.00 | C[C@H]1NCCc2c1nn1c2CN(c2ccc(C#N)n3ncc(F)c23)C[C@H]1CF [Example I-87, 3-Fluoro-4-((4S,7R)-4-(fluoromethyl)-7-methyl-3,4,7,8,9,10-hexahydropyrido [3',4':3,4]pyrazolo[1,5-a]pyrazin-2(1H)-yl)pyrazolo[1,5-a]pyridine-7-carbonitrile] |  |
| > 7.30 | > 7.00 | C[C@@H]1CN(c2ccc(C#N)n3ncc(F)c23)Cc2c3c(nn21)CNC(c1cnn(C)c1)C3 (stereo partly drawn) [Example I-91, 3-Fluoro-4-((4R)-4-methyl-9-(1-methyl-1H-pyrazol-4-yl)-3,4,7,8,9,10-hexahydropyrido[3',4':3,4]pyrazolo[1,5-a]pyrazin-2(1H)-yl)pyrazolo[1,5-a]pyridine-7-carbonitrile] |  |
|  |  | C[C@@H]1CN(c2ccc(C#N)n3ncc(F)c23)Cc2c3c(nn21)CN1C(=O)OC[C@@H]1C3 [Example I-95, 3-Fluoro-4-((8R,12aS)-8-methyl-3-oxo-1,8,9,11,12,12a-hexahydro-3H,5H,10H-oxazolyl [3 ‴,4 ':1'6']pyridine and [3',4':3,4]pyrazole [1,5-a]pyrazine-10-yl) pyrazole [1,5-a]pyridine-7-nitrile] | IC50 [1]: > 0.05 µM; IC50 [2]: > 0.1 µM |
| > 7.30 | > 7.00 | C[C@@H]1CN(c2ccc(C#N)n3ncc(F)c23)Cc2c3c(nn21)CN(CC(=O)N[C@H]1CNC[C@H]1F)[C@@H](C)C3 [Example I-106, 2-((4R,9S)-2-(7-cyano-3-fluoropyrazolo[1,5-a]pyridin-4-yl)-4,9-dimethyl-1,2,3,4,9,10-hexahydropyrido[3',4':3,4]pyrazolo[1,5-a]pyrazin-8(7H)-yl)-N-((3S,4R)-4-fluoropyrrolidin-3-yl)acetamide] |  |
|  |  | C[C@@H]1CN(c2ccc(C#N)n3ncc(F)c23)Cc2c3c(nn21)CN(C1CC(O)C1)[C@@H](C)C3 (stereo partly drawn) [Example I-111, 3-Fluoro-4-((4R, 9S)-8-(3-hydroxycyclobutyl)-4,9-dimethyl-3,4,7,8,9, 10-hexahydropyridine [3 ', 4 ': 3, 4]pyrazole [1,5-a]pyrazine-2 (1 H) -yl) pyrazole [1,5-a] pyridine-7-nitrile] | IC50 [1]: < 0.05 µM; IC50 [2]: < 0.1 µM |
| > 7.30 | > 7.00 | C[C@@H]1CN(c2ccc(C#N)n3ncc(F)c23)Cc2c3c(nn21)CN(CC(C)(C)O)[C@@H](C)C3 [Example I-117, 3-Fluoro-4-((4R,9S)-8-(2-hydroxy-2-methylpropyl)-4,9-dimethyl-3,4,7,8,9,10-hexahydropyrido[3',4':3,4]pyrazolo[1,5-a]pyrazin-2(1H)-yl)pyrazolo[1,5-a]pyridine-7-carbonitrile] |  |
|  |  | COCCN1Cc2nn3c(c2C[C@@H]1C)CN(c1ccc(C#N)n2ncc(F)c12)C[C@H]3C [Example I-125, 3-Fluoro-4-((4R,9S)-8-(2-methoxyethyl)-4,9-dimethyl-3,4,7,8,9,10-hexahydropyridine [3 ', 4 ': 3, 4]pyrazole [1,5-a]pyrazine-2(1H)-yl) pyrazole[1,5-a] pyridine-7-caronitrile] | pIC50 [1]: > 7.30; pIC50 [2]: > 7.00 |

| Structure (SMILES) | pIC50 [1, 3] | pIC50 [2, 4] | also measured |
| --- | --- | --- | --- |
| C[C@@H]1CN(c2ccc(C#N)n3ncc(F)c23)Cc2c3c(nn21)CN(CC(N)=O)[C@@H](C)C3 [Example I-99, 2-((4R,9S)-2-(7-cyanide-3-fluoropyridox and [1,5-a]pyridox-4-base)-4,9-dimethyl-1,2,3,4,9, 10-hydropyridox [3', 4': 3, 4]pyridoz and [1, 5]pyridoxine-8 (7H)-Base) acetylamine] | > 7.30 | < 7.00 |  |
| C[C@@H]1CN(c2ccc(C#N)n3ncc(F)c23)Cc2c3c(nn21)CN(S(=O)(=O)CCN(C)C)[C@@H](C)C3 [Example I-118] | > 7.30 | > 7.00 |  |
